The target in this test is T1, Plk1 (Homo sapiens, UniProt P53350).
T1 construct: in the presence of 15 nM Plk1 (A20-K338)
In words: Plk1 inhibition assay (radioactive-phosphate incorporation). The test is classed as biochemical. To be noted: Ki(app) from [γ-33P]ATP incorporation, 25° C. As for the experimental part: Compounds of the present invention may be evaluated as inhibitors of human PLK kinase using the following assays.
Compounds were screened for their ability to inhibit Plk1 using a radioactive-phosphate incorporation assay. Assays were carried out in a mixture of 25 mM HEPES (pH 7.5), 10 mM MgCl2, and 1 mM DTT. Final substrate concentrations were 50 μM [γ-33P]ATP (136 mCi 33P ATP/mmol ATP, Amersham Pharmacia Biotech/Sigma Chemicals) and 10 μM peptide (SAM68 protein Δ332-443). Assays were carried out at 25° C. in the presence of 15 nM Plk1 (A20-K338). An assay stock buffer solution was prepared containing all of the reagents listed above, with the exception of ATP and the test compound of interest. 30 μL of the stock solution was placed in a 96 well plate followed by addition of 2 μL of DMSO stock containing serial dilutions of the test compound (typically starting from a final concentration of 10 μM with 2-fold serial dilutions) in duplicate (final DMSO concentration 5%). The plate was pre-incubated for 10 minutes at 25° C. and the reaction initiated by addition of 8 μL [γ33P]ATP (final concentration 50 μM).
The reaction was stopped after 60 minutes by the addition of 100 μL 0.14M phosphoric acid. A multiscreen phosphocellulose filter 96-well plate (Millipore, Cat no. MAPHN0B50) was pretreated with 100 μL 0.2M phosphoric acid prior to the addition of 125 μL of the stopped assay mixture. The plate was washed with 4×200 μL 0.2M phosphoric acid. After drying, 100 μL Optiphase ‘SuperMix’ liquid scintillation cocktail (Perkin Elmer) was added to the well prior to scintillation counting (1450 Microbeta Liquid Scintillation Counter, Wallac).
After removing mean background values for all of the data points, Ki(app) data were calculated from non-linear regression analysis of the initial rate data using the Prism software package (GraphPad Prism version 3.0cx for Macintosh, GraphPad Software, San Diego Calif., USA).
Compounds were screened for their ability to inhibit Plk1 using a radioactive-phosphate incorporation assay. Assays were carried out in a mixture of 25 mM HEPES (pH 7.5), 10 mM MgCl2, 0.1% BSA, and 2 mM DTT. Final substrate concentrations were 150 μM (350 μM for determining values of <1 nM) [γ-33P]ATP (115 mCi 33P ATP/mmol ATP, Amersham Pharmacia Biotech/Sigma Chemicals) and 300 μM (450 μM for determining values of <1 nM) peptide (KKKISDELMDATFADQEAK) SEQ. ID NO. 1. Assays were carried out at 25° C. in the presence of 4 nM (1 nM for determining values of <1 nM) Plk1. An assay stock buffer solution was prepared containing all of the reagents listed above, with the exception of ATP and the test compound of interest. 30 μL of the stock solution was placed in a 96 well plate followed by addition of 2 μL of DMSO stock containing serial dilutions of the test compound (typically starting from a final concentration of 10 μM with 2-fold serial dilutions) in duplicate (final DMSO concentration 5%). The plate was pre-incubated for 10 minutes at 25° C. and the reaction initiated by addition of 8 μl [γ-33P]ATP (final concentration 150 μM (350 μM for determining values of <1 nM))).
The reaction was stopped after 90 minutes (240 minutes for determining values of <1 nM) by the addition of 100 μL 0.14M phosphoric acid. A multiscreen phosphocellulose filter 96-well plate (Millipore, Cat no. MAPHN0B50) was pretreated with 100 μL 0.2M phosphoric acid prior to the addition of 125 μL of the stopped assay mixture. The plate was washed with 4×200 μL 0.2M phosphoric acid. After drying, 100 μL Optiphase ‘SuperMix’ liquid scintillation cocktail (Perkin Elmer) was added to the well prior to scintillation counting (1450 Microbeta Liquid Scintillation Counter, Wallac).

Each structure is given as a SMILES string. A value given as a limit tells only on which side of the number the result lay.

T1 sequence (P53350 20-338): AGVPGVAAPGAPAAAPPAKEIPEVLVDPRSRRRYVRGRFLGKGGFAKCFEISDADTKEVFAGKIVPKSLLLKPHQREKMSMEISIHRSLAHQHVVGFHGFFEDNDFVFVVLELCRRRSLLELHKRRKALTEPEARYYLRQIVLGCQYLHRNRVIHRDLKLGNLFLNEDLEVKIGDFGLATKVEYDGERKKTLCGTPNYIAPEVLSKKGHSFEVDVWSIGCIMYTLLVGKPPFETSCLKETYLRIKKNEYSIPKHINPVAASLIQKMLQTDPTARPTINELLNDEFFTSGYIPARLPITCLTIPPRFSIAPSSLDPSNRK

Regarding `CC[C@@H]1c2nncn2-c2cnc(Nc3ccc(C(=O)NC)cc3Cl)nc2N1C1CCCC1` [Compound I-4, 4-((R)-5-cyclopentyl-4-ethyl-4,5-dihydro-[1,2,4]triazolo[4,3]pteridin-7-ylamino)-3-chloro-N-methylbenzamide], the Ki was under 10 nM.

`CC[C@@H]1c2nncn2-c2cnc(Nc3ccccc3)nc2N1C1CCCC1` [Compound I-22, (R)-5-cyclopentyl-4-ethyl-N-phenyl-4,5-dihydro-[1,2,4]triazolo[4,3-f]pteridin-7-amine]: the Ki is under 10 nM.

Consider `CC[C@@H]1c2nncn2-c2cnc(Nc3ccc(C(=O)NC)cc3COC)nc2N1C1CCCC1` [Compound I-30, (R)-4-(5-cyclopentyl-4-ethyl-4,5-dihydro-[1,2,4]triazolo[4,3-f]pteridin-7-ylamino)-3-(methoxymethyl)-N-methylbenzamide], for which the Ki is under 10 nM.

Turning to `CC[C@@H]1c2nncn2-c2cnc(Nc3ccc(C(=O)NC)cc3C(F)F)nc2N1C1CCCC1` [Compound I-24, (R)-4-(5-cyclopentyl-4-ethyl-4,5-dihydro-[1,2,4]triazolo[4,3-f]pteridin-7-ylamino)-3-(difluoromethyl)-N-methylbenzamide], the Ki was under 10 nM.

Take `CCNC(=O)c1ccc(Nc2ncc3c(n2)N(C2CCCC2)[C@H](CC)c2nncn2-3)c(OC)c1` [Compound I-18, (R)-4-(5-cyclopentyl-4-ethyl-4,5-dihydro-[1,2,4]triazolo[4,3-f]pteridin-7-ylamino)-N-ethyl-3-methoxybenzamide]: the Ki was under 10 nM.

`CC[C@@H]1c2nncn2-c2cnc(Nc3ccc(C(=O)NC)cc3C)nc2N1C1CCCC1` [Compound I-6, 4-((R)-5-cyclopentyl-4-ethyl-4,5-dihydro-[1,2,4]triazolo[4,3]pteridin-7-ylamino)-N,3-dimethylbenzamide]: the Ki is under 10 nM.

In the case of `CC[C@@H]1c2nncn2-c2cnc(Nc3ccc(C(=O)NC4CC4)cc3)nc2N1C1CCCC1` [Compound I-11, (R)-4-(5-cyclopentyl-4-ethyl-4,5-dihydro-[1,2,4]triazolo[4,3-f]pteridin-7-ylamino)-N-cyclopropylbenzamide], the Ki is under 10 nM.

As for `CC[C@@H]1c2nncn2-c2cnc(Nc3ccc(C(=O)NC)cc3OC)nc2N1C1CCCC1` [Compound I-1, 4-((R)-5-cyclopentyl-4-ethyl-4,5-dihydro-[1,2,4]triazolo[4,3-f]pteridin-7-ylamino)-3-methoxy-N-methylbenzamide], the Ki was under 10 nM.

For the compound `CC[C@@H]1c2nncn2-c2cnc(Nc3ccc(N4CCOCC4)cc3)nc2N1C1CCCC1` [Compound I-34, (R)-5-cyclopentyl-4-ethyl-N-(4-morpholinophenyl)-4,5-dihydro-[1,2,4]triazolo[4,3-f]pteridin-7-amine], the Ki was under 10 nM.

As for `CC[C@@H]1c2nncn2-c2cnc(Nc3ccc(C(=O)NC4CC(F)(F)C4)cc3OC)nc2N1C1CCCC1` [Compound I-17, (R)-4-(5-cyclopentyl-4-ethyl-4,5-dihydro-[1,2,4]triazolo[4,3-f]pteridin-7-ylamino)-N-(3,3-difluorocyclobutyl)-3-methoxybenzamide], the Ki is under 10 nM.

Take `CC[C@@H]1c2nncn2-c2cnc(Nc3ccc(C(=O)NC)cc3F)nc2N1C1CCCC1` [Compound I-16, (R)-4-(5-cyclopentyl-4-ethyl-4,5-dihydro-[1,2,4]triazolo[4,3-f]pteridin-7-ylamino)-3-fluoro-N-methylbenzamide]: the Ki is under 10 nM.

For `CC[C@@H]1c2nncn2-c2cnc(Nc3ccc(N4CCN(C)CC4)nc3)nc2N1C1CCCC1` [Compound I-41, (R)-5-cyclopentyl-4-ethyl-N-(6-(4-methylpiperazin-1-yl)pyridin-3-yl)-4,5-dihydro-[1,2,4]triazolo[4,3-f]pteridin-7-amine], the Ki is under 10 nM.

The values above are taken from patent publication US8524902B2, “[1,2,4]triazolo[4,3-f]pteridines useful as inhibitors of protein kinases” (Vertex Pharmaceuticals Incorporated, priority 2006, dated 2013).
